Assay results from patent US20140271606A1, “METHODS OF USING ADENOSINE RECEPTOR ANTAGONISTS FOR TREATING BLEEDING DISORDERS” (Bayer HealthCare LLC, priority 2013, published 2014).

Legend:
Hemophilia B mice = experiment: Tail cut blood loss in Hemophilia B mice; assay type: in vivo; details: 100 mg/kg intravenous in PEG400/water 60/40, 5 min prior to tail cut, 30 min bleeding, vs excipient (FIG. 4)
Experimental: In this Example, the effect of administering an adenosine receptor antagonist on reduction in blood loss in mice with Hemophilia A and Hemophilia B mice was analyzed. Male Hemophilia A or Hemophilia B mice, approximately eight to nine weeks of age and weighing, on average, approximately 25 grams, were used in this Example. The mice were anesthetized with isoflurane and the tails were placed in approximately 37-38° C. warmed 15-ml plastic tubes including 0.9% (by weight) saline for 10 minutes. The tails were then cut at 4 mm from the tip by scalpel and immediately placed back into separate pre-warmed (37-38° C.) 15-ml plastic tubes containing 10 ml of 0.9% (by weight) saline. Each mouse was allowed to bleed freely for 30 minutes. Nineteen mice having Hemophilia B were injected with the third sample of adenosine receptor antagonist solution by intravenous injection in the amount of 100 mg/kg ZM241385 five minutes prior to the tail cut. Nineteen control mice were treated with 100 μl of PEG400/water (60/40 v/v) without any adenosine receptor antagonist prior to the tail cut to serve as an untreated control. Blood loss was quantified gravimetrically by weighing the tubes before and after blood was collected.

Hemophilia A mice = experiment: Tail cut blood loss in Hemophilia A mice; assay type: in vivo; details: 30 min bleeding
Experimental: In this Example, the effect of administering an adenosine receptor antagonist on reduction in blood loss in mice with Hemophilia A and Hemophilia B mice was analyzed. Male Hemophilia A or Hemophilia B mice, approximately eight to nine weeks of age and weighing, on average, approximately 25 grams, were used in this Example. The mice were anesthetized with isoflurane and the tails were placed in approximately 37-38° C. warmed 15-ml plastic tubes including 0.9% (by weight) saline for 10 minutes. The tails were then cut at 4 mm from the tip by scalpel and immediately placed back into separate pre-warmed (37-38° C.) 15-ml plastic tubes containing 10 ml of 0.9% (by weight) saline. Each mouse was allowed to bleed freely for 30 minutes. The adenosine 2a and 2b receptor antagonist, 4-(2-[7-Amino-2-(2-furyl)[1,2,4]triazolo[2,3-a][1,3,5]triazin-5-ylamino]ethyl)phenol (commercially available as ZM241385 from Tocris Bioscience, United Kingdom), was used in this Example. In a first sample group, ZM241385 was dissolved in 100% DMSO. In a second sample group, ZM241385 was dissolved in PEG400/ethanol/water (40/10/50 v/v/v). In a third sample group, ZM241385 was dissolved in PEG400/water (60/40 v/v). […] Blood loss was quantified gravimetrically by weighing the tubes before and after blood was collected.

Measured: blood loss

Nc1nc(NCCc2ccc(O)cc2)nc2nc(-c3ccco3)nn12 [ZM241385, 4-(2-[7-Amino-2-(2-furyl)[1,2,4]triazolo[2,3-a][1,3,5]triazin-5-ylamino]ethyl)phenol]
reduced blood loss: Hemophilia B mice | Hemophilia A mice; 100 mg/kg intraperitoneal in 100% DMSO, 30 min prior to tail cut, vs excipient (FIG. 2) | Hemophilia A mice; 300 mg/kg intraperitoneal in PEG400/ethanol/water 40/10/50, 30 min prior to tail cut, vs excipient (FIG. 3)
